Source: US11512053B2, “Arginine methyltransferase inhibitors and uses thereof” (priority 2013, dated 2022)
Where two headings read alike, the source gives them in different places.

Experiments:
[1] = target: full-length human PRMT1 isoform 1 (GST-tagged) (Homo sapiens, UniProt Q99873); assay: PRMT1 Biochemical Assay (3H-SAM Flashplate, peptide substrate)
Excerpt: General Materials. S-adenosylmethionine (SAM), S-adenosylhomocysteine (SAH), bicine, Tween20, dimethylsulfoxide (DMSO), bovine skin gelatin (BSG), and Tris(2-carboxyethyl)phosphine hydrochloride solution (TCEP) were purchased from Sigma-Aldrich at the highest level of purity possible. ^3H-SAM was purchase from American Radiolabeled Chemicals with a specific activity of 80 Ci/mmol. 384-well streptavidin Flashplates were purchased from PerkinElmer.
Protein Expression. Recombinant baculovirus were generated according to Bac-to-Bac kit instructions (Life Technologies). […] Infections were carried out at 27° C. for 48 hours, harvested by centrifugation, and stored at −80° C. for purification.
Protein Purification. […] GST-tagged PRMT1 was eluted with 50 mM Tris, 2 mM glutathione, pH 7.8, dialysed in buffer A and concentrated to 1 mg/mL.
General Procedure for PRMT1 Enzyme Assays on Peptide Substrates. The assays were all performed in a buffer consisting of 20 mM Bicine (pH=7.6), 1 mM TCEP, 0.005% BSG, and 0.002% Tween 20, prepared on the day of use. […] DMSO (1 ul) was added to Columns 11, 12, 23, 24, rows A-H for the maximum signal control and 1 ul of SAH, a known product and inhibitor of PRMT1, was added to columns 11, 12, 23, 24, rows I-P for the minimum signal control. A cocktail (40 ul) containing the PRMT1 enzyme was added by Multidrop Combi (Thermo-Fisher). The compounds were allowed to incubate with PRMT1 for 30 min at room temperature, then a cocktail (10 ul) containing SAM and peptide was added to initiate the reaction (final volume=51 ul). […] The assays were stopped by the addition of non-radiolabeled SAM (10 ul) to a final concentration of 300 uM, which dilutes the ^3H-SAM to a level where its incorporation into the peptide substrate is no longer detectable. 50 ul of the reaction in the 384-well polypropylene plate was then transferred to a 384-well Flashplate and the biotinylated peptides were allowed to bind to the streptavidin surface for at least 1 hour before being washed once with 0.1% Tween20 in a Biotek ELx405 plate washer. The plates were then read in a PerkinElmer TopCount plate reader to measure the quantity of ^3H-labeled peptide bound to the Flashplate surface, measured as disintegrations per minute (dpm) or alternatively, referred to as counts per minute (cpm).
Where dpm=disintegrations per minute, cmpd=signal in assay well, and min and max are the respective minimum and maximum signal controls.
Where top and bottom are the normally allowed to float, but may be fixed at 100 or 0 respectively in a 3-parameter fit. The Hill Coefficient normally allowed to float but may also be fixed at 1 in a 3-parameter fit. Y is the % inhibition and X is the compound concentration.

[2] = tested on: mono-methyl arginine in RKO cells; assay: RKO Methylation Assay, In Cell Western (ICW) for detection of mono-methyl arginine and DNA content; type: cell-based; conditions: Homo sapiens, RKO, 72 h, RKO cells, read-out: In Cell Western EC30
Excerpt: RKO adherent cells were purchased from ATCC (American Type Culture Collection), Manassas, Va., USA. DMEM/Glutamax medium, penicillin-streptomycin, heat inactivated fetal bovine serum, 0.05% trypsin and D-PBS were purchased from Life Technologies, Grand Island, N.Y., USA. Odyssey blocking buffer, 800 CW goat anti-rabbit IgG (H+L) antibody, and Licor Odyssey infrared scanner were purchased from Licor Biosciences, Lincoln, Nebr., USA. Mono-methyl arginine antibody was purchased from Cell Signaling Technology, Danvers, Mass., USA. Methanol was purchased from VWR, Franklin, Mass., USA. 10% Tween 20 was purchased from KPL, Inc., Gaithersburg, Md., USA. DRAQ5 was purchased from Biostatus Limited, Leicestershire, UK.
RKO adherent cells were maintained in growth medium (DMEM/Glutamax medium supplemented with 10% v/v heat inactivated fetal bovine serum and 100 units/mL penicillin-streptomycin) and cultured at 37° C. under 5% CO2.
Cell treatment, In Cell Western (ICW) for detection of mono-methyl arginine and DNA content. […] Compound (100 nL) from a 96-well source plate was added directly to 384 well cell plate. Plates were incubated at 37° C., 5% CO2 for 72 hours. After three days of incubation, plates were brought to room temperature outside of the incubator for ten minutes and blotted on paper towels to remove cell media. 50 μL of ice cold 100% methanol was added directly to each well and incubated for 30 min at room temperature. After 30 min, plates were transferred to a Biotek EL406 plate washer and washed 2 times with 100 μL per well of wash buffer (1×PBS). Next 60 μL per well of Odyssey blocking buffer (Odyssey Buffer with 0.1% Tween 20 (v/v)) were added to each plate and incubated 1 hour at room temperature. Blocking buffer was removed and 20 μL per well of primary antibody was added (mono-methyl arginine diluted 1:200 in Odyssey buffer with 0.1% Tween 20 (v/v)) and plates were incubated overnight (16 hours) at 4° C. Plates were washed 5 times with 100 μL per well of wash buffer. […] The plates were washed 5 times with 100 μL per well wash buffer then 2 times with 100 μL per well of water. Plates were allowed to dry at room temperature then imaged on the Licor Odyssey machine which measures integrated intensity at 700 nm and 800 nm wavelengths. Both 700 and 800 channels were scanned.
Calculations: First, the ratio for each well was determined by:
Each plate included fourteen control wells of DMSO only treatment (minimum activation) as well as fourteen control wells for maximum activation treated with 20 μM of a reference compound. The average of the ratio values for each control type was calculated and used to determine the percent activation for each test well in the plate. Reference compound was serially diluted three-fold in DMSO for a total of nine test concentrations, beginning at 20 μM. Percent activation was determined and EC30 curves were generated using triplicate wells per concentration of compound.

[3] = single experiment or average of multiple experiments
[4] = 72 hours compound incubation, mono-methyl arginine signal normalised to DNA content (DRAQ5), percent activation vs 20 μM reference compound
[5] = 72 hours incubation, mono-methyl arginine signal normalised to DNA content, single experiment or average of multiple experiments

full-length human PRMT1 isoform 1 (GST-tagged), sequence (Q99873 with tags, fused parts or gaps): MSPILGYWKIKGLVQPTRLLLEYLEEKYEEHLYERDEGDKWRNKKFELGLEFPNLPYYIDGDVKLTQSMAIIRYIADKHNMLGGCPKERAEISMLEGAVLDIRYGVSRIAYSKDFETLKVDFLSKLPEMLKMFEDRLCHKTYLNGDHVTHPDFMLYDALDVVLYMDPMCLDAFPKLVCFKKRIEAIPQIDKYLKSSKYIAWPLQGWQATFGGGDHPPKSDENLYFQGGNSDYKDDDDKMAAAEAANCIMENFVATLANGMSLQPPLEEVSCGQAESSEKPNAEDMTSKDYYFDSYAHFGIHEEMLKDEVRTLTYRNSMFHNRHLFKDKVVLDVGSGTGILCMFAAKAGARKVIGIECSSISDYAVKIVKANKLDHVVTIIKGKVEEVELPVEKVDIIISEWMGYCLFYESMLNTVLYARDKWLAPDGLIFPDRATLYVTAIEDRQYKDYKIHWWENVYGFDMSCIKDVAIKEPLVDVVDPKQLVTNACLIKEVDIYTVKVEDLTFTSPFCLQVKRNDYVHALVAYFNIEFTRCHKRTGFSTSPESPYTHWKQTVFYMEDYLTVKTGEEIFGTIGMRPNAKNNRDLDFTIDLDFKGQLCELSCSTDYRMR

Structure (SMILES)	IC50 [1]	IC50 [1, 3]	EC30 [2, 4]	EC30 [2, 5]
CNCCN(C)Cc1c[nH]nc1C1CCC(OCCOc2ccccc2)CC1 (stereo not drawn) [Compound 136]	< 100 nM	2.9 nM	< 3000 nM	35 nM
CNCCN(C)Cc1c[nH]nc1C1CCC2(CC1)CCC(F)(F)CC2 [Compound 130]	< 100 nM	3.4 nM		
CNCCN(C)Cc1c[nH]nc1C1CCC2(CC1)CN(C)C(=O)N2CC(C)C (stereo not drawn) [Compound 151]	< 100 nM	36.9 nM	< 3000 nM	705 nM
CNCCN(C)Cc1c[nH]nc1C1CCC2(CC1)OCCO2 [Compound 177]	< 100 nM	27.6 nM	< 3000 nM	571 nM
CNCCN(C)Cc1c[nH]nc1C1CCC(=O)N(CCC(C)C)C1 (stereo not drawn) [Compound 117]	< 100 nM	38.6 nM		
CNCCN(C)Cc1c[nH]nc1C1CCC(N(CC(C)C)C(=O)CC2CCOCC2)CC1 (stereo not drawn) [Compound 114]	101 to 1000 nM	101 nM		
CCN1CC2(CCC(c3n[nH]cc3CN(C)CCNC)CC2)N(C)C1=O (stereo not drawn) [Compound 154]	< 100 nM	17.7 nM	< 3000 nM	1790 nM
CNCCN(C)Cc1c[nH]nc1C1CCC(CC(C)C)CC1 (stereo not drawn) [Compound 169]	< 100 nM	6.5 nM	< 3000 nM	16 nM
CNCCN(C)Cc1c[nH]nc1C1CC(C)OC(C)C1 (stereo not drawn) [Compound 179]	< 100 nM	15.9 nM	< 3000 nM	476 nM
CNCCN(C)Cc1c[nH]nc1[C@H]1CC[C@@]2(CCN(Cc3ccc(F)cc3)C2=O)CC1 [Compound 125]	< 100 nM	5.3 nM	< 3000 nM	87.6 nM
CNCCN(C)Cc1c[nH]nc1[C@H]1CC[C@@]2(CCOC2(C)C)CC1 [Compound 106, Methyl [2-(methylamino)ethyl]([3-[(5R,8R)-1,1-dimethyl-2-oxaspiro[4.5]decan-8-yl]-1H-pyrazol-4-yl]methyl)amine]	< 100 nM	9.5 nM	< 3000 nM	22.7 nM
CNCCN(C)Cc1c[nH]nc1C1CCC(OCC(C)C)CC1 (stereo not drawn) [Compound 153]	< 100 nM	23.2 nM	< 3000 nM	129 nM
CNCCN(C)Cc1c[nH]nc1[C@H]1CC[C@@]2(CCN(Cc3ccccc3)C2=O)CC1 [Compound 127]	< 100 nM	16.5 nM	< 3000 nM	29.2 nM
CNCCN(C)Cc1c[nH]nc1C1CCC2(CC1)CCN(CCC(C)C)C2=O (stereo not drawn) [Compound 163]	< 100 nM	17.3 nM	< 3000 nM	66 nM
CNCCN(C)Cc1c[nH]nc1[C@H]1CC[C@@H](COC)CC1 [Compound 166]	< 100 nM	18 nM	< 3000 nM	83 nM
CNCCN(C)Cc1c[nH]nc1[C@H]1CC[C@@]2(CCN(Cc3ccc(OCCOC)cc3)C2=O)CC1 [Compound 120]	< 100 nM	10.1 nM	< 3000 nM	9.8 nM
CNCCN(C)Cc1c[nH]nc1C1CCC2(CC1)CC(=O)N(C)C2 (stereo not drawn) [Compound 157]	< 100 nM	18.5 nM	< 3000 nM	2490 nM

Structure (SMILES)	IC50 [1]	IC50 [1, 3]	EC30 [2, 4]	EC30 [2, 5]
CNCCN(C)Cc1c[nH]nc1[C@H]1CC[C@@]2(CCN(Cc3cc(F)cc(F)c3)C2=O)CC1 [Compound 126]	< 100 nM	4 nM	< 3000 nM	638 nM
CNCCN(C)Cc1c[nH]nc1C1=CCC(CCOC)(CCOC)CC1 [Compound 173]	< 100 nM	23.2 nM	< 3000 nM	408 nM
CNCCN(C)Cc1c[nH]nc1C1CC(OCC(C)C)CC(OCC(C)C)C1 (stereo not drawn) [Compound 122]	101 to 1000 nM	421 nM		346 nM
CNCCN(C)Cc1c[nH]nc1[C@H]1CC[C@]2(CCN(CC(C)C)C2=O)CC1 [Compound 124]	< 100 nM	6.4 nM	< 3000 nM	21.4 nM
CCOCC1CC(COCC)CC(c2n[nH]cc2CN(C)CCNC)C1 (stereo not drawn) [Compound 119]	101 to 1000 nM	124 nM	< 3000 nM	77.3 nM
CNCCN(C)Cc1c[nH]nc1[C@H]1CC[C@@H](O)C2(CCCCC2)C1 (single isomer, unassigned) [Compound 183]	< 100 nM	13.5 nM	< 3000 nM	319 nM
CNCCN(C)Cc1c[nH]nc1C1CCCC(COCCOC)C1 (stereo not drawn) [Compound 112]	< 100 nM	18.9 nM		
CNCCN(C)Cc1c[nH]nc1[C@H]1CC[C@H](O)C2(CCCCC2)C1 (racemic) [Compound 184, (1S,4S)-4-[4-({methyl[2-(methylamino)ethyl]amino}methyl)-1H-pyrazol-3-yl] spiro[5.5]undecan-1-ol]	< 100 nM	19.8 nM	< 3000 nM	458 nM
CNCCN(C)Cc1c[nH]nc1C1CC(OC(C)C)CC(OC(C)C)C1 (stereo not drawn) [Compound 118]	1010 to 3000 nM	2160 nM	3010 to 12000 nM	9570 nM
CNCCN(C)Cc1c[nH]nc1[C@H]1CC[C@@]2(CC1)CC(=O)N(CC(C)C)C2 [Compound 156]	< 100 nM	17.2 nM	< 3000 nM	1360 nM
CNCCN(C)Cc1c[nH]nc1C1CCC2(CC1)OC(C)CC(C)O2 (stereo not drawn) [Compound 121]	< 100 nM	15.2 nM		
CNCCN(C)Cc1c[nH]nc1C1CC(COC)CC(COC)C1 (stereo not drawn) [Compound 138]	101 to 1000 nM	349 nM		
CNCCN(C)Cc1c[nH]nc1[C@H]1CC[C@@H](N(CC2CCOCC2)C(=O)CC(C)C)CC1 [Compound 107]	< 100 nM	21.2 nM		
CNCCN(C)Cc1c[nH]nc1[C@H]1CC[C@H](OCCOc2ccc(OC)cc2)CC1 [Compound 186]	101 to 1000 nM	110 nM		
CCCOC1CC(OCCC)CC(c2n[nH]cc2CN(C)CCNC)C1 (stereo not drawn) [Compound 131]	101 to 1000 nM	270 nM		
CNCCN(C)Cc1c[nH]nc1C1CCC2(CC1)NC(=O)N(C)C2=O (stereo not drawn) [Compound 170]	< 100 nM	21 nM		
